Experimental data taken from paper PMC4278837, “A Cyclic Peptidic Serine Protease Inhibitor: Increasing Affinity by Increasing Peptide Flexibility” (PLoS ONE, 2014).
Like-named read-outs stand apart in the source and are kept apart here. Blank lines part the entries; values can stand above or below the compound they belong to. Bridge positions count the residues as written; N and C are the ends. Square brackets hold non-standard residues; d marks the D form. Peptide text beside a SMILES is read from it. Ala(1-amidino-4-piperidyl) = N=C(N)N1CCC(C[C@H](N)C(=O)O)CC1

What was measured:
huPA-H99Y R35A = biological target: T1, huPA-H99Y R35A (Homo sapiens, UniProt P00749, H272Y/R198A); assay: Ki for inhibition of huPA-H99Y-R35A, chromogenic substrate; type: biochemical
T1 construct: To ensure that the uPAs purified from the conditioned media were completely in the two-chain form, they were treated with plasmin; hexa-His (C); made in house; host or cells: HEK293 6E suspension cells
From the text: (§1) Determination of Ki values
(§2) The initial reaction velocities were monitored at an absorbance of 405 nm. The inhibition constants (K i) were subsequently determined from the non-linear regression analyses of plots for V i/V o versus [I]0, using Equation 2, derived under assumption of competitive inhibition:
(§3) [drawing 2] (2) where V i and V 0 are the reaction velocities in the presence and absence of inhibitor, respectively; [S]0 and [I]0 are the substrate and inhibitor concentrations, respectively; K M is K M for substrate hydrolysis by each protease. In Equation 2, it is assumed that [S]free ≈ [S]0 and [I]free ≈ [I]0.

huPA-H99Y V41A = biological target: T2, huPA-H99Y V41A (Homo sapiens, UniProt P00749, H272Y/V208A); assay: Ki for inhibition of huPA-H99Y-V41A, chromogenic substrate; type: biochemical
T2 construct: To ensure that the uPAs purified from the conditioned media were completely in the two-chain form, they were treated with plasmin; hexa-His (C); made in house; host or cells: HEK293 6E suspension cells
From the text: as §1, §2, §3

huPA-H99Y K143A = biological target: T3, huPA-H99Y K143A (Homo sapiens, UniProt P00749, H272Y/K320A); assay: Ki for inhibition of huPA-H99Y-K143A, chromogenic substrate; type: biochemical
T3 construct: To ensure that the uPAs purified from the conditioned media were completely in the two-chain form, they were treated with plasmin; hexa-His (C); made in house; host or cells: HEK293 6E suspension cells
From the text: as §1, §2, §3

muPA K41A = biological target: T4, muPA K41A (Mus musculus, UniProt P06869, K210A); assay: Ki for inhibition of muPA-K41A, chromogenic substrate; type: biochemical, murine
T4 construct: To ensure that the uPAs purified from the conditioned media were completely in the two-chain form, they were treated with plasmin; hexa-His (C); made in house; host or cells: HEK293 6E suspension cells
From the text: as §1, §2, §3

muPA Y99A = biological target: T5, muPA Y99A (Mus musculus, UniProt P06869, Y274A); assay: Ki for inhibition of muPA-Y99A, chromogenic substrate; type: biochemical, murine
T5 construct: To ensure that the uPAs purified from the conditioned media were completely in the two-chain form, they were treated with plasmin; hexa-His (C); made in house; host or cells: HEK293 6E suspension cells
From the text: as §1, §2, §3

muPA K143A = biological target: T6, muPA K143A (Mus musculus, UniProt P06869, K322A); assay: Ki for inhibition of muPA-K143A, chromogenic substrate; type: biochemical, murine; conditions: means ± S.D.; read-out: K i for inhibition of muPA-K143A
T6 construct: To ensure that the uPAs purified from the conditioned media were completely in the two-chain form, they were treated with plasmin; hexa-His (C); made in house; host or cells: HEK293 6E suspension cells
From the text: as §1, §2, §3

muPA S190A = biological target: T7, muPA S190A (Mus musculus, UniProt P06869, S373A); assay: Ki for inhibition of muPA-S190A, chromogenic substrate; type: biochemical, murine
T7 construct: To ensure that the uPAs purified from the conditioned media were completely in the two-chain form, they were treated with plasmin; hexa-His (C); made in house; host or cells: HEK293 6E suspension cells
From the text: as §1, §2, §3

muPA V213T = biological target: T8, muPA V213T (Mus musculus, UniProt P06869, V396T); assay: Ki for inhibition of muPA-V213T, chromogenic substrate; type: biochemical, murine
T8 construct: To ensure that the uPAs purified from the conditioned media were completely in the two-chain form, they were treated with plasmin; hexa-His (C); made in house; host or cells: HEK293 6E suspension cells
From the text: as §1, §2, §3

huPA-H99Y [1] = biological target: T9, huPA-H99Y (Homo sapiens, UniProt P00749, H272Y); assay: Surface plasmon resonance analysis of peptide binding to huPA-H99Y; conditions: SPR; for koff: read-out: koff of fitted curve, representative sensorgram; for kon: read-out: kon of fitted curve, representative sensorgram
T9 construct: To ensure that the uPAs purified from the conditioned media were completely in the two-chain form, they were treated with plasmin; hexa-His (C); made in house; host or cells: HEK293 6E suspension cells
Description: (§4) Surface plasmon resonance (SPR) analysis
(§5) To determine the equilibrium binding constants (KD), the association rate constants (kon) and dissociation rate constants (koff) for peptide binding to uPA, surface plasmon resonance analysis was performed on a Biacore T200 instrument (Biacore, Uppsala, Sweden). A CM5 chip was coupled with the uPA variant (muPA or huPAH99Y) to be analysed, by injecting a concentration of 30 µg/mL uPA in immobilization buffer (10 mM sodium acetate, pH 5.0), aiming for an immobilised level of approximately 500 response units (RU). Immobilisation was followed by surface blocking with ethanolamine. A reference cell was prepared in the same way, without coupling of uPA. Mupain-1 variants in HBS with 0.1% BSA, in a dilution series, were injected at a flow rate of 30 µL per min during 60 s at 25°C. Subsequently, the dissociation was monitored during 600 s. Kinetic constants (k on and k off) were calculated with the Biacore Evaluation Software, using the 1∶1 kinetic fit. The K D values were calculated as k off /k on.

muPA = biological target: T10, muPA (Mus musculus, UniProt P06869); assay: Surface plasmon resonance analysis of peptide binding to muPA; parameters: species or system murine; conditions: SPR, 25°C, pH 7.4
T10 construct: To ensure that the uPAs purified from the conditioned media were completely in the two-chain form, they were treated with plasmin; hexa-His (C); made in house; host or cells: HEK293 6E suspension cells
Description: as §4, §5

huPA-H99Y [2] = biological target: T11, huPA-H99Y (Homo sapiens, UniProt P00749, C299A/H272Y/N322Q); assay: Isothermal titration calorimetry for binding to huPA-H99Y catalytic domain; conditions: ITC, 25°C, pH 7.4
T11 construct: recombinant uPA catalytic domain (residues 159–411), harbouring a H99Y mutation; made in house; host or cells: Pichia pastoris X-33 (secreted)
Description: For these experiments, we used the catalytic domain of huPA-H99Y expressed in and purified from Pichia pastoris strain X-33 (see above). The protein was dissolved in and dialysed against a buffer of 20 mM sodium phosphate, pH 7.4, 140 mM NaCl. The protein concentration was determined by absorbance at 280 nm, using an extinction coefficient of 43810 M^−1cm^−1. The peptides were dissolved in the above-mentioned buffer. All isothermal titration calorimetry experiments were performed with a MicroCal^TM ITC200 instrument equilibrated to a temperature of 25°C (298oK). The concentration of uPA-H99Y catalytic domain used in the 200 µl sample cell was 5–50 µM, depending on the affinity of the ligand. Titrations were performed by injecting 2 µl of the ligand until the total syringe volume of 40 µl was spent. Titration of ligand into buffer was performed to obtain buffer correction. The equilibrium association constant KA and the reaction enthalpy ΔH were calculated by fitting the integrated titration peaks using a one-binding-site model in the ITC ORIGIN7 programme package. The following formulas for Gibbs free energy ΔG were used to analyse the measured energies
[drawing 4] (4) where R is the gas constant and T the absolute temperature. ΔS, the entropic change during the reaction, was calculated using equations 3 and 4 and the measured K A and ΔH values.

huPA-H99Y [3] = biological target: T9, huPA-H99Y; conditions: 37°C; means ± S.D.; starred values reproduced from previous publications; ref Andersen et al., 2008; Hosseini et al., 2011; read-out: K i for inhibition of huPA-H99Y; cited from earlier work
muPA wt = biological target: T12, muPA wt (Mus musculus, UniProt P06869); conditions: cited from earlier work
T12 construct: To ensure that the uPAs purified from the conditioned media were completely in the two-chain form, they were treated with plasmin; hexa-His (C); made in house; host or cells: HEK293 6E suspension cells

huPA-H99Y Q192A = huPA-H99Y Q192A (Homo sapiens, UniProt P00749, H272Y/Q373A); assay: Ki for inhibition of huPA-H99Y-Q192A, chromogenic substrate; type: biochemical; parameters: To ensure that the uPAs purified from the conditioned media were completely in the two-chain form, they were treated with plasmin; hexa-His (C); made in house; host or cells: HEK293 6E suspension cells
From the text: as §1, §2, §3

[4] = huPA-H99Y immobilized on CM5 chip, single example (S3 Fig)

T10 sequence (P06869 180-433 limits assumed): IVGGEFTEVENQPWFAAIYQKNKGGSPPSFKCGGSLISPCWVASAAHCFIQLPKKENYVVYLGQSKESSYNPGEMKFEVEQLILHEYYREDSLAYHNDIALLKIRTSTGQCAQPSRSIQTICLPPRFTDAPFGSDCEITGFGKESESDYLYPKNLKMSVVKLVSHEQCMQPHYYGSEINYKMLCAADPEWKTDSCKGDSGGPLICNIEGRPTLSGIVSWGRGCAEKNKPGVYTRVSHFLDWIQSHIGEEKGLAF
T10 sequence (P06869 21-178 partner limits assumed): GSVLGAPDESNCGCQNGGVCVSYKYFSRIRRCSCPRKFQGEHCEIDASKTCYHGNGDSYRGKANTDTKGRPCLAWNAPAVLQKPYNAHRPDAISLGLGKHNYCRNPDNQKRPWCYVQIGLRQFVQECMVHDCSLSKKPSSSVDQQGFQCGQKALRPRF
T6 sequence (P06869 180-433 K322A): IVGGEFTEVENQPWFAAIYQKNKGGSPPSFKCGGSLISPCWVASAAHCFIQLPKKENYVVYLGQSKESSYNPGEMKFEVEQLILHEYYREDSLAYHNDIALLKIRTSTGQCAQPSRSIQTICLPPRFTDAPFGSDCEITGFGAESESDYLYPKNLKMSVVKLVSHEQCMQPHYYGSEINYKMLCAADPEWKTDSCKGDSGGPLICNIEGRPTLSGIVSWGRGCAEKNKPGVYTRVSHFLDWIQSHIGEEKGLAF
T6 sequence (P06869 21-178 partner limits assumed): as the sequence (P06869 21-178 partner limits assumed) above
T12 sequence (P06869 180-433 limits assumed): as the sequence (P06869 180-433 limits assumed) above
T12 sequence (P06869 21-178 partner limits assumed): as the sequence (P06869 21-178 partner limits assumed) above
T7 sequence (P06869 180-433 S373A): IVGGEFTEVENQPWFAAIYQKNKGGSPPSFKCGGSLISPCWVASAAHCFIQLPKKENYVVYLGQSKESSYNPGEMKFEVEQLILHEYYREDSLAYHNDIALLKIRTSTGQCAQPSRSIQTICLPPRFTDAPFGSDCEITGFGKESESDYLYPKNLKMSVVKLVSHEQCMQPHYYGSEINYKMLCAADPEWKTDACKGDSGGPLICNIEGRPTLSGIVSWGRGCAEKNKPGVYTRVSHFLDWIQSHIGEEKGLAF
T7 sequence (P06869 21-178 partner limits assumed): as the sequence (P06869 21-178 partner limits assumed) above
T8 sequence (P06869 180-433 V396T): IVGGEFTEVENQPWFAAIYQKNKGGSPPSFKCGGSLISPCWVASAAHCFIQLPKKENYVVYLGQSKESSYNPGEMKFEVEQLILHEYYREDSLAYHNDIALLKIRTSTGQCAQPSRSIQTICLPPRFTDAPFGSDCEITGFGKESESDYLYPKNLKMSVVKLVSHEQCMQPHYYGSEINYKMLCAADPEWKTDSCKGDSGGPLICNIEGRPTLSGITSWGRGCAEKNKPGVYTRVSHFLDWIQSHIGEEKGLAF
T8 sequence (P06869 21-178 partner limits assumed): as the sequence (P06869 21-178 partner limits assumed) above
T5 sequence (P06869 180-433 Y274A): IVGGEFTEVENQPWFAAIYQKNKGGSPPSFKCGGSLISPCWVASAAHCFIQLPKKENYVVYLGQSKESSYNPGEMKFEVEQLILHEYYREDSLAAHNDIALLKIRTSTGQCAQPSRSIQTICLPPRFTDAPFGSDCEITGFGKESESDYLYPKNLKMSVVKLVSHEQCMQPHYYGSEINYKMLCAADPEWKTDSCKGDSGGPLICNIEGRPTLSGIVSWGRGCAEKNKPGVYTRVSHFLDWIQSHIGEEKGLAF
T5 sequence (P06869 21-178 partner limits assumed): as the sequence (P06869 21-178 partner limits assumed) above
T4 sequence (P06869 180-433 K210A): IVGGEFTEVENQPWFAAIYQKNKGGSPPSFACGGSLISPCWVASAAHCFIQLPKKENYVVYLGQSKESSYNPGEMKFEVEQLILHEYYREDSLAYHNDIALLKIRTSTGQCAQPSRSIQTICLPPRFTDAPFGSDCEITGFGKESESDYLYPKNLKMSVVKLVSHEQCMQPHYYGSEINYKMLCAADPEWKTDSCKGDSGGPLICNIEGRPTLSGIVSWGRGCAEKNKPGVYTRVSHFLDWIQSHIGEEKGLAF
T4 sequence (P06869 21-178 partner limits assumed): as the sequence (P06869 21-178 partner limits assumed) above

Structure (SMILES): CC(=O)N[C@H]1CSSC[C@@H](C(N)=O)NC(=O)[C@H](CC(=O)O)NC(=O)[C@H](CC(C)C)NC(=O)[C@H](Cc2ccc(O)cc2)NC(=O)[C@H](CCCNC(=N)N)NC(=O)[C@H](CO)NC(=O)[C@H](Cc2ccc(O)cc2)NC(=O)[C@H](C)NC(=O)[C@@H]2CCCN2C1=O [Mupain-1, CPAYSRYLDC] (Ac-CPAYSRYLDC-NH2; disulfide 1-10)
- Ki (huPA-H99Y R35A): 39500 ± 2900 nM
- Ki (huPA-H99Y V41A): 32400 ± 5300 nM
- Ki (huPA-H99Y K143A): 56600 ± 8000 nM
- Ki (muPA K41A): 4290 ± 150 nM
- Ki (muPA Y99A): 26000 ± 5800 nM
- Ki (muPA K143A): 4880 ± 350 nM
- Ki (muPA S190A): 1600 ± 530 nM
- Ki (muPA V213T): 246 ± 44 nM
- Kd (huPA-H99Y [1]; K D, huPA-H99Y, 25°C, pH 7.4, calculated as k off/k on): 14100 ± 2400 nM
- Kd (huPA-H99Y [1]; KD of fitted curve, representative sensorgram, huPA-H99Y immobilized on CM5 chip, single example (S3 Fig)): 15800 nM
- k off, huPA-H99Y (huPA-H99Y [1]; 25°C, pH 7.4): 80.2±7.6 (4) s^-1, ×10^2
- k on, huPA-H99Y (huPA-H99Y [1]; 25°C, pH 7.4): 0.569±0.103 (4) M^-1s^-1, ×10^-5
- koff (huPA-H99Y [1]; [4]): 0.803 s⁻¹
- kon (huPA-H99Y [1]; [4]): 50900 M⁻¹ s⁻¹
- k off, muPA (muPA): 3.64±1.03 (6) s^−1, ×10^2
- k on, muPA (muPA): 0.914±0.250 (6) M^−1s^−1, ×10^−5
- Kd (huPA-H99Y [2]): 5040 ± 1610 nM
- Ki (huPA-H99Y [3]): 15300 ± 2000 nM
- Ki (muPA wt; introduction, read-out: K i value for inhibition of muPA): ~500 nM
- Ki (huPA-H99Y Q192A): 33200 ± 4200 nM

- Ki (huPA-H99Y R35A; 37°C, means ± S.D., read-out: K i for inhibition of huPA-H99Y-R35A): 2500 ± 290 nM
- Ki (huPA-H99Y V41A; 37°C, means ± S.D., read-out: K i for inhibition of huPA-H99Y-V41A): 1950 ± 300 nM
- Ki (huPA-H99Y K143A; 37°C, means ± S.D., read-out: K i for inhibition of huPA-H99Y-K143A): 1130 ± 320 nM
- Ki (muPA K41A; means ± S.D., read-out: K i for inhibition of muPA-K41A): 300 ± 50 nM
- Ki (muPA Y99A; means ± S.D., read-out: K i for inhibition of muPA-Y99A): 1240 ± 440 nM
- Ki (muPA K143A): 130 ± 20 nM
- Ki (muPA S190A; means ± S.D., read-out: K i for inhibition of muPA-S190A): 352 ± 40 nM
- Ki (muPA V213T; means ± S.D., read-out: K i for inhibition of muPA-V213T): 13 ± 3 nM
- k off, huPA-H99Y (huPA-H99Y [1]; 25°C, pH 7.4): 8.93±0.46 (4) s^-1, ×10^2
- k on, huPA-H99Y (huPA-H99Y [1]; 25°C, pH 7.4): 1.07±0.15 (4) M^-1s^-1, ×10^-5
- Kd (huPA-H99Y [1]; 25°C, pH 7.4, calculated as k off/k on, read-out: K D, huPA-H99Y): 844 ± 132 nM
- Kd (huPA-H99Y [1]; huPA-H99Y immobilized on CM5 chip, single example (S3 Fig), read-out: KD of fitted curve, representative sensorgram): 920 nM
- koff (huPA-H99Y [1]; [4]): 0.0929 s⁻¹
- kon (huPA-H99Y [1]; [4]): 101000 M⁻¹ s⁻¹
- k off, muPA (muPA): 0.671±0.119 (3) s^−1, ×10^2
- k on, muPA (muPA): 0.898±0.545 (3) M^−1s^−1, ×10^−5
- Ki (huPA-H99Y Q192A; 37°C, means ± S.D., read-out: K i for inhibition of huPA-H99Y-Q192A): 2710 ± 280 nM
Structure (SMILES): CC(=O)N[C@H]1CSSC[C@@H](C(N)=O)NC(=O)[C@H](CC(=O)O)NC(=O)[C@H](CC(C)C)NC(=O)[C@H](Cc2ccc(O)cc2)NC(=O)[C@H](CC2CCN(C(=N)N)CC2)NC(=O)[C@H](CO)NC(=O)[C@H](Cc2ccc(O)cc2)NC(=O)[C@H](C)NC(=O)[C@@H]2CCCN2C1=O [Mupain-1-16, CPAYS[L-3-(N-amidino-4-piperidyl)alanine]YLDC] (Ac-CPAYS[Ala(1-amidino-4-piperidyl)]YLDC-NH2; disulfide 1-10)
- Ki (huPA-H99Y [3]): 2480 ± 70 nM
- Ki (muPA wt; means ± S.D., starred values reproduced from previous publications, ref Andersen et al., 2008, Hosseini et al., 2011, read-out: K i for inhibition of muPA wt): 45 ± 10 nM
